19 molecules from patent US11111233B2, “Amino pyrimidine compound for inhibiting protein tyrosine kinase activity” (Shenzhen TargetRx, Inc., priority 2016, dated 2021) can be followed below.

The subject of assay [1] is lung cancer cells HCC827 (Del19). Briefly: Cytotoxicity test (MTS cell viability), HCC827. Type of assay: cell-based. The note with it: Homo sapiens.
Assay [2] deals with WT EGFR (Homo sapiens (Human), UniProt P00533). Briefly: Kinase inhibition assay (HTRF), WT EGFR. Type of assay: biochemical. For orientation: In TR-FRET formats the signal depends on donor and acceptor labels being close together.
Assay [3] relates to Skin cancer cell line A431 (WT). Briefly: Cytotoxicity test (MTS cell viability), A431. Particulars: Homo sapiens. Format: cell-based.
For assay [4], the target named is EGFR [L858R/T790M] (Homo sapiens (Human), UniProt P00533, L858R/T790M). In words: Kinase inhibition assay (HTRF), EGFR [L858R/T790M]. Format: biochemical.
Where [5] appears, read: HCC827, 72 h, read-out: HCC827 (Del19) IC50(nM).
[6] abbreviates: A-431, MTS, 72 hours, read-out: A431 (WT) IC50.
[7] abbreviates: HTRF Kinase TK kit, 10 min pre-incubation, 20 min reaction.
[8] abbreviates: HTRF Kinase TK kit, 10 min pre-incubation, 20 min reaction, read-out: EGFR(L858R/T790M) IC50.
The mark [9] stands for this setting: HCC827, MTS, 72 hours, read-out: HCC827 (Del19) IC50.

Molecules are shown by their SMILES. Where two headings read alike, the source gives them in different places. A value given as a limit tells only on which side of the number the result lay.

Sequence of EGFR [L858R/T790M] (P00533 25-1210 T790M/L858R): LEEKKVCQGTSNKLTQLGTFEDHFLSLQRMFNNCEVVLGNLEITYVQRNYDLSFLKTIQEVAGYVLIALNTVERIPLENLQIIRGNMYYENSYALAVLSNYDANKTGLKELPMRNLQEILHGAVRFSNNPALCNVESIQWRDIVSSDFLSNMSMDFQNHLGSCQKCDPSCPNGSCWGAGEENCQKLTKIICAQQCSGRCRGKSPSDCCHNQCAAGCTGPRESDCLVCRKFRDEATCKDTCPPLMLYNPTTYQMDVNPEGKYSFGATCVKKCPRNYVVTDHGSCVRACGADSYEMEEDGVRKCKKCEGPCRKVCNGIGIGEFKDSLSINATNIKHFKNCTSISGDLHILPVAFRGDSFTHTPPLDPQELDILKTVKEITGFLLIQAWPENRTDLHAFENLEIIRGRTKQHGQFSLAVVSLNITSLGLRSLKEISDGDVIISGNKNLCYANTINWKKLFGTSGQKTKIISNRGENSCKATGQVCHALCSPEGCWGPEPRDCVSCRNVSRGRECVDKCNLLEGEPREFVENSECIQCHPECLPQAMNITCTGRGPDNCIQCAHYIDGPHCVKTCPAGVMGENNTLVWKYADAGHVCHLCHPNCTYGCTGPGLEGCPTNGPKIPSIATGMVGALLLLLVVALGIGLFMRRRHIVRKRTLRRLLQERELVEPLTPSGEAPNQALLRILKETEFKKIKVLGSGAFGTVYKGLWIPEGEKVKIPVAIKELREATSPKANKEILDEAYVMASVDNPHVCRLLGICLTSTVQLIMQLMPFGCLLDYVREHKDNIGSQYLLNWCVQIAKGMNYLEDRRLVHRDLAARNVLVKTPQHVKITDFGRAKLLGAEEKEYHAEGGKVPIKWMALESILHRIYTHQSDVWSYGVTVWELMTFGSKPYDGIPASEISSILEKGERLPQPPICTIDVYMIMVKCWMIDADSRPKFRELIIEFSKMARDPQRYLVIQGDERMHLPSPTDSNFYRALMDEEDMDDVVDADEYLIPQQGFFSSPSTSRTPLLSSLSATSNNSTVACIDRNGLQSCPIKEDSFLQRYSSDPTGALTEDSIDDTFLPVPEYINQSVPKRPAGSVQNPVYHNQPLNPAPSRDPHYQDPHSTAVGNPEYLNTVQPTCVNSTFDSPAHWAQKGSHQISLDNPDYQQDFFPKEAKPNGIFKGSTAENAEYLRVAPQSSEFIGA
Sequence of WT EGFR (P00533 25-1210): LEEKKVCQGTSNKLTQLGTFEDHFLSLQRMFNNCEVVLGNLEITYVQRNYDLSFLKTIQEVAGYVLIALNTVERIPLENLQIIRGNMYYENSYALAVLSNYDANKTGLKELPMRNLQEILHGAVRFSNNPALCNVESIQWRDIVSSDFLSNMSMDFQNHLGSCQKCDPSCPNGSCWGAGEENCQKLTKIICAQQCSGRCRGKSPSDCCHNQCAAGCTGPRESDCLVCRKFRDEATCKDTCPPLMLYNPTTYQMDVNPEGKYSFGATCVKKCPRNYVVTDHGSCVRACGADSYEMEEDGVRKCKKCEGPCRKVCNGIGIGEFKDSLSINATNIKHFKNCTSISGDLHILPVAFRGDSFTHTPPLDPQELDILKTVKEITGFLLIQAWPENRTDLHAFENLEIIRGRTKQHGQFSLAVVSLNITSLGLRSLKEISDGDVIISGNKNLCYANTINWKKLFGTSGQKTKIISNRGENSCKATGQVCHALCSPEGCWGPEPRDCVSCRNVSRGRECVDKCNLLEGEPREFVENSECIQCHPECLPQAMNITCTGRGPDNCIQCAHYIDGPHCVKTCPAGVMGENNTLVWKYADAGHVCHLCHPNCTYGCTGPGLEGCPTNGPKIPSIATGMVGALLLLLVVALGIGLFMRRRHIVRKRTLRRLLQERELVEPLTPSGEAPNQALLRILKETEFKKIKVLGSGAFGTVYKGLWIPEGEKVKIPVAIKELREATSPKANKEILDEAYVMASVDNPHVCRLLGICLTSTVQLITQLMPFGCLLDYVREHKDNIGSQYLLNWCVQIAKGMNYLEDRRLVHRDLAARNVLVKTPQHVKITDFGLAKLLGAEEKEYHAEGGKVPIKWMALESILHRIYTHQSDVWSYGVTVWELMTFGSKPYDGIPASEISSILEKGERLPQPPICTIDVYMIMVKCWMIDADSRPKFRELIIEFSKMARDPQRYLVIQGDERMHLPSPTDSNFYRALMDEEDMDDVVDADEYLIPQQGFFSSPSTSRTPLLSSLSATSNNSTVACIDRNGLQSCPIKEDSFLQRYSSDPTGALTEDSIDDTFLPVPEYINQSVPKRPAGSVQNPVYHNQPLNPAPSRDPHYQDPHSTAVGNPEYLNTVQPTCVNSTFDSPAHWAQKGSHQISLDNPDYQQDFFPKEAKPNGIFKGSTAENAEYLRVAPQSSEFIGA

Take `C=CC(=O)Nc1cc(Nc2nccc(-c3cc(F)c4nc(C)n(C(C)C)c4c3)n2)c(OC)cc1OCCOC` [Example 10, N-(2-(2-methoxy-ethyl-oxy)-5-((4-(4-fluoro-1-isopropyl-2-methyl-1H-benzo[d]imidazole-6-yl)pyrimidin-2-yl)amino)-4-methoxyphenyl)acrylamide]: the IC50 in assay [1] (setting [5]) is 400 to 1000 nM; in assay [2], over 100 nM; in assay [3] (setting [6]), over 1000 nM; in assay [4], 50 to 100 nM.

Regarding `C=CC(=O)Nc1cc(Nc2nccc(-c3cc(F)c4nc(C)n(C(C)C)c4c3)n2)c(OC)cc1N1CCC(N2CCOCC2)CC1` [Example 13], the IC50 in assay [1] (setting [5]) was 10 to 100 nM; in assay [2] (setting [7]), 1 to 50 nM; in assay [3] (setting [6]), over 1000 nM; in assay [4] (setting [8]), 1 to 50 nM.

As to `C=CC(=O)Nc1cc(Nc2nccc(-c3cc(F)c4nc(C)n(C(C)C)c4c3)n2)c(OC)cc1N1CCC(O)CC1` [Example 17, N-(2-(4-hydroxypiperidine-1-yl)-5-((4-(4-fluoro-1-isopropyl-2-methyl-1H-benzo[d]imidazole-6-yl)pyrimidin-2-yl)amino)-4-methoxyphenyl)acrylamide], the IC50 in assay [1] (setting [5]) was 100 to 400 nM; in assay [2] (setting [7]), over 100 nM; in assay [3] (setting [6]) it was over 1000 nM; in assay [4] (setting [8]), 1 to 50 nM.

Turning to `C=CC(=O)Nc1cc(Nc2nccc(-c3cc(F)c4nc(C)n(C5CC5)c4c3)n2)c(OC)cc1N(C)CCN(C)C` [Example 20, N-(5-((4-(1-cyclopropyl-4-fluoro-2-methyl-1H-benzo[d]imidazole-6-yl)pyrimidin-2-yl)amino)-2-((2-(dimethylamino)ethyl)(methyl)amino)-4-methoxyphenyl)acrylamide], the IC50 was 10 to 100 nM in assay [1] (setting [9]), 1 to 50 nM in assay [2] (setting [7]), 100 to 400 nM in assay [3] (setting [6]) and under 1 nM in assay [4] (setting [8]).

In the case of `C=CC(=O)Nc1cc(Nc2nccc(-c3cc(F)c4nc(CF)n(C(C)C)c4c3)n2)c(OC)cc1N(C)CCN(C)C` [Example 21, N-(2-((2-(dimethylamino)ethyl)(methyl)amino)-5-((4-(4-fluoro-2-(fluoromethyl)-1-isopropyl-1H-benzo[d]imidazole-6-yl)pyrimidin-2-yl)amino)-4-methoxyphenyl)acrylamide], the IC50 is under 10 nM in assay [1] (setting [9]), 1 to 50 nM in assay [2] (setting [7]), 100 to 400 nM in assay [3] (setting [6]) and under 1 nM in assay [4] (setting [8]).

Turning to `C=CC(=O)Nc1cc(Nc2nccc(-c3cnc4nc(C)n(C(C)C)c4c3)n2)c(OC)cc1N(C)CCN(C)C` [Example 22, N-(2-((2-(dimethylamino)ethyl)(methyl)amino)-5-((4-(1-isopropyl-2-methyl-1H-imidazo[4,5-b]pyridine-6-yl)pyrimidin-2-yl)amino)-4-methoxyphenyl)acrylamide], the IC50 in assay [1] (setting [5]) is 10 to 100 nM; in assay [2] (setting [7]), 1 to 50 nM; in assay [3] (A-431, 72 h, read-out: A431 (WT) IC50(nM)), 100 to 400 nM; in assay [4] (setting [8]) it was 1 to 50 nM.

As to `C=CC(=O)Nc1cc(Nc2nccc(-c3ccc4nc(OC)n(C(C)C)c4c3)n2)c(OC)cc1N(C)CCN(C)C` [Example 24, N-(2-((2-(dimethylamino)ethyl)(methyl)amino)-5-((4-(1-isopropyl-2-methoxy-1H-benzo[d]imidazole-6-yl)pyrimidin-2-yl)amino)-4-methoxyphenyl)acrylamide], the IC50 in assay [1] (setting [9]) lay within 10 to 100 nM; in assay [2] (setting [7]), 1 to 50 nM; in assay [3] (setting [6]) it was 400 to 1000 nM; in assay [4] (setting [8]) it was 1 to 50 nM.

With `C=CC(=O)Nc1cc(Nc2nccc(-c3ccc4oc(=O)n(C)c4c3)n2)c(OC)cc1N(C)CCN(C)C` [Example 25, N-(2-((2-(dimethylamino)ethyl)(methyl)amino)-4-methoxy-5-((4-(3-methyl-2-oxo-2,3-di hydrobenzo[d]oxazole-5-yl)pyrimidin-2-yl)amino)phenyl)acrylamide], the IC50 was 100 to 400 nM in assay [1] (setting [9]), 1 to 50 nM in assay [2] (setting [7]), over 1000 nM in assay [3] (setting [6]) and 1 to 50 nM in assay [4] (setting [8]).

For `C=CC(=O)Nc1cc(Nc2nccc(-c3cc(F)c4cnn(C(C)C)c4c3)n2)c(OC)cc1N(C)CCN(C)C` [Example 26, N-(2-((2-(dimethylamino)ethyl)(methyl)amino)-5-((4-(4-fluoro-1-isopropyl-1H-indazole-6-yl)pyrimidin-2-yl)amino)-4-methoxyphenyl)acrylamide], the IC50 was 10 to 100 nM in assay [1] (setting [9]), 1 to 50 nM in assay [2] (setting [7]), 400 to 1000 nM in assay [3] (setting [6]) and under 1 nM in assay [4] (setting [8]).

As for `C=CC(=O)Nc1cc(Nc2nccc(-c3ccc4cnn(C(C)C)c4c3)n2)c(OC)cc1N(C)CCN(C)C` [Example 27, N-(2-((2-(dimethylamino)ethyl)(methyl)amino)-5-((4-(1-isopropyl-1H-indazole-6-yl)pyrimidin-2-yl)amino)-4-methoxyphenyl)acrylamide], the IC50 in assay [1] (setting [9]) is 10 to 100 nM; in assay [2] (setting [7]) it was 1 to 50 nM; in assay [3] (setting [6]) it was 400 to 1000 nM; in assay [4] (setting [8]) it was under 1 nM.

`C=CC(=O)Nc1cc(Nc2nccc(-c3cc(F)c4nc(C)c(C(C)C)n4c3)n2)c(OC)cc1N(C)CCN(C)C` [Example 28, N-(2-((2-(dimethylamino)ethyl)(methyl)amino)-5-((4-(8-fluoro-3-isopropyl-2-methylimidazo[1,2-a]pyridine-6-yl)pyrimidin-2-yl)amino)-4-methoxyphenyl)acrylamide]: the IC50 in assay [1] (setting [9]) lay within 10 to 100 nM; in assay [2] (setting [7]), 1 to 50 nM; in assay [3] (setting [6]) it was 400 to 1000 nM; in assay [4] (setting [8]) it was 1 to 50 nM.

On to `C=CC(=O)Nc1cc(Nc2nccc(-c3cc(F)c4nc(C)cn4c3)n2)c(OC)cc1N(C)CCN(C)C` [Example 29, N-(2-((2-(dimethylamino)ethyl)(methyl)amino)-5-((4-(8-fluoro-2-methylimidazo[1,2-a]pyridine-6-yl)pyrimidin-2-yl)amino)-4-methoxyphenyl)acrylamide], for which the IC50 in assay [1] (setting [9]) was in the range of 100 to 400 nM; in assay [2] (setting [7]), 1 to 50 nM; in assay [3] (setting [6]) it was 400 to 1000 nM; in assay [4] (setting [8]), 1 to 50 nM.

Regarding `C=CC(=O)Nc1cc(Nc2nccc(-c3cc(OC(C)(C)C)c4nc(C)n(C(C)C)c4c3)n2)c(OC)cc1N(C)CCN(C)C` [Example 30, N-(5-((4-(4-(tert-butoxy)-1-isopropyl-2-methyl-1H-benzo[d]imidazole-6-yl)pyrimidin-2-yl)amino)-2-((2-(dimethylamino)ethyl)(methyl)amino)-4-methoxyphenyl)acrylamide], the IC50 in assay [1] (setting [9]) is under 10 nM; in assay [2] (setting [7]) it was under 1 nM; in assay [3] (setting [6]), over 1000 nM; in assay [4] (setting [8]), under 1 nM.

As to `C=CC(=O)Nc1cc(Nc2nccc(-c3cc(F)c4nc(C)oc4c3)n2)c(OC)cc1N(C)CCN(C)C` [Example 32, N-(2-((2-(dimethylamino)ethyl)(methyl)amino)-5-((4-(4-fluoro-2-methylbenzo[d]oxazole-6-yl)pyrimidin-2-yl)amino)-4-methoxyphenyl)acrylamide], the IC50 in assay [1] (setting [9]) was 10 to 100 nM; in assay [2] (setting [7]), 1 to 50 nM; in assay [3] (setting [6]), over 1000 nM; in assay [4] (setting [8]), 1 to 50 nM.

Turning to `C=CC(=O)Nc1cc(Nc2nccc(-c3cc(F)c4ocnc4c3)n2)c(OC)cc1N(C)CCN(C)C` [Example 33, N-(2-((2-(dimethylamino)ethyl)(methyl)amino)-5-((4-(7-fluorobenzo[d]oxazole-5-yl)pyrimidin-2-yl)amino)-4-methoxyphenyl)acrylamide], the IC50 in assay [1] (setting [9]) was 10 to 100 nM; in assay [2] (setting [7]) it was 1 to 50 nM; in assay [3] (setting [6]), over 1000 nM; in assay [4] (setting [8]), under 1 nM.

With `C=CC(=O)Nc1cc(Nc2ncc(F)c(-c3cc(F)c4nc(C)c(C(C)C)n4c3)n2)c(OC)cc1N(C)CCN(C)C` [Example 34, N-(2-((2-(dimethylamino)ethyl)(methyl)amino)-5-((5-fluoro-4-(8-fluoro-3-isopropyl-2-methylimidazo[1,2-a]pyridine-6-yl)pyrimidin-2-yl)amino)-4-methoxyphenyl)acrylamide], the IC50 in assay [1] (setting [9]) is 10 to 100 nM; in assay [2] (setting [7]), 1 to 50 nM; in assay [3] (setting [6]), over 1000 nM; in assay [4] (setting [8]) it was under 1 nM.

As for `C=CC(=O)Nc1cc(Nc2nccc(-c3ccc4nc(C)n(C(C)C)c4c3)n2)c(OC)cc1N(C)CCN(C)C` [Example 35, N-(2-((2-(dimethylamino)ethyl)(methyl)amino)-5-((4-(1-isopropyl-2-methyl-1H-benzo[d]imidazole-6-yl)pyrimidin-2-yl)amino)-4-methoxyphenyl)acrylamide], the IC50 was 10 to 100 nM in assay [1] (setting [9]), 1 to 50 nM in assay [2] (setting [7]), 400 to 1000 nM in assay [3] (setting [6]) and under 1 nM in assay [4] (setting [8]).

As to `C=CC(=O)Nc1cc(Nc2nccc(-c3cc(F)c4[nH]ncc4c3)n2)c(OC)cc1N(C)CCN(C)C` [Example 38, N-(2-((2-(dimethylamino)ethyl)(methyl)amino)-5-((4-(7-fluoro-1H-indazole-5-yl)pyrimidin-2-yl)amino)-4-methoxyphenyl)acrylamide], the IC50 in assay [1] (setting [9]) was 10 to 100 nM; in assay [2] (setting [7]), 1 to 50 nM; in assay [3] (setting [6]), over 1000 nM; in assay [4] (setting [8]) it was under 1 nM.

As to `C=CC(=O)Nc1cc(Nc2nccc(-c3cc(F)c4nn(C)cc4c3)n2)c(OC)cc1N(C)CCN(C)C` [Example 40, N-(2-((2-(dimethylamino)ethyl)(methyl)amino)-5-((4-(7-fluoro-2-methyl-2H-indazole-5-yl)pyrimidin-2-yl)amino)-4-methoxyphenyl)acrylamide], the IC50 in assay [1] (setting [9]) is 10 to 100 nM; in assay [2] (setting [7]) it was 1 to 50 nM; in assay [3] (setting [6]) it was 400 to 1000 nM; in assay [4] (setting [8]), under 1 nM.
